This is an account of results in patent US20070218150A1, “Active Oxygen Scavenging Agent and Moisturizing Agent Containing Wild Watermelon Extract” (priority 2004, published 2007).

The assay can be described thus: active oxygen (hydroxyl radical) scavenging, competitive reaction analysis using salicylic acid oxidation as an index. It is filed as biochemical. The following applies: 50 mg/l of citrulline solution; 25 degrees, 90 minutes, pH 7.4. On the procedure: The active oxygen scavenging ability of the wild watermelon fruit extract is assayed by competitive reaction analysis using salicylic acid oxidation as an index. Specifically, 2 mM salicylic acid and the wild watermelon fruit extract of various concentrations are dissolved in 50 mM phosphate buffer (pH 7.4). After that, by adding 0.6 mM of hydrogen peroxide, 0.15 mM of FeEDTA and 0.26 mM of ascorbic acid, hydroxyl radical is generated, and reacted at 25 degrees for 90 minutes. Quantitation of dihydroxyl benzoic acid (DHBA) generated by salicylic acid oxidation followed the method as set forth in the literature (Smirnofff and Cumbes (1989) Phytochemistry, 28: 1057-1060.)

SMILES strings stand for the structures.

With `NC(=O)NCCC[C@H](N)C(=O)O` [citrulline], the “inhibition of salicylic acid oxidation” value worked out at 6%.
